Test: Measurement of logP values by HPLC on reversed phase columns (EEC directive 79/831 Annex V.A8)
Format: physicochemical
Conditions: pH 2.7

logP	chromatographic logP	Structure (SMILES)
1.95		CN(C)C(=O)c1cc(-c2ncnc(Nc3ccccc3)n2)ccn1 [Example B314]
2.86		COCCN(C)C(=O)c1cc(-c2ncnc(Nc3cccc(OC(F)(F)F)c3)n2)ccn1 [Example B270]
3.58		CC(C)CN(C)C(=O)c1cc(-c2ncnc(Nc3cccc(C(F)(F)F)c3)n2)ccn1 [Example B362]
3.46		CC(C)CN(C)C(=O)c1cc(-c2ncnc(Nc3ccc(F)c(Cl)c3)n2)ccn1 [Example B206]
2.98		CN(CC1CC1)C(=O)c1cc(-c2ncnc(Nc3ccc(F)c(F)c3)n2)ccn1 [Example B381]
2.66		CCN(CC(C)(C)O)C(=O)c1cc(-c2ncnc(Nc3cccc(Cl)c3)n2)ccn1 [Example B166]
3.73		CC(C)CN(C)C(=O)c1cc(-c2ncnc(Nc3cccc(OC(F)(F)F)c3)n2)ccn1 [Example B267]
3.64		CSc1cccc(Nc2ncnc(-c3ccnc(C(=O)NCC4CC4)c3)n2)c1 [B219]
2.46		CN(CC(F)F)C(=O)c1cc(-c2ncnc(Nc3ccsc3)n2)ccn1 [Example C21]
3.17		CCNC(=O)c1cc(-c2ncnc(Nc3cccc(Cl)c3)n2)ccn1 [B92]
3.13		CCCN(C)C(=O)c1cc(-c2ncnc(Nc3ccc(F)c(Cl)c3)n2)ccn1 [Example B203]
2.62		CCCN(C)C(=O)c1cc(-c2ncnc(Nc3ccc(F)cc3)n2)ccn1 [Example B16]
5.1		CCON=C(CC)c1cc(-c2ncnc(Nc3cccc(Cl)c3)n2)ccn1 (mixture of isomers) [Example B40]
2.88		CCN(CC)C(=O)c1cc(-c2ncnc(Nc3ccc(F)c(F)c3)n2)ccn1 [B351]
2.55		CCN(CC)C(=O)c1cc(-c2ncnc(Nc3ccccc3)n2)ccn1 [Example B311]
2.86		C#CCN(CC)C(=O)c1cc(-c2ncnc(Nc3cccc(C(F)F)c3)n2)ccn1 [B420]
2.25		CN(C)C(=O)c1cc(-c2ncnc(Nc3ccc(F)c(C(F)F)c3)n2)ccn1 [Example B393]
2.26		O=CNCCCNC(=O)c1cc(-c2ncnc(Nc3cccc(Cl)c3)n2)ccn1 [B178]
	2.28	NC(=NO)c1cc(-c2ncnc(Nc3cccc(Cl)c3)n2)ccn1 [Example B78, 4-{4-[(3-chlorophenyl)amino]-1,3,5-triazin-2-yl}-N′-hydroxypyridine-2-carboximidamide]
2.45		CC(C)N(CCO)C(=O)c1cc(-c2ncnc(Nc3cccc(Cl)c3)n2)ccn1 [Example B180]
2.08		CC(=O)Nc1cccc(Nc2ncnc(-c3ccnc(C(=O)N(C)CCC#N)c3)n2)c1 [B304]
2.14		COCCN(C)C(=O)c1cc(-c2ncnc(Nc3cccc(OC)c3)n2)ccn1 [Example B280]
2.47		NC(=S)c1cc(-c2ncnc(Nc3ccc(F)cc3)n2)ccn1 [B322]
3.39		COC[C@H](C)NC(=O)c1cc(-c2ncnc(Nc3cccc(Cl)c3)n2)ccn1 [B52]

Second part, the compound before the results:

Structure (SMILES)	logP	chromatographic logP
NC(=S)c1cc(-c2ncnc(Nc3cccc(C(F)F)c3)n2)ccn1 [B320]	3.05	
CCC(COC)NC(=O)c1cc(-c2ncnc(Nc3ccc(F)c(Cl)c3)n2)ccn1 (centres unmarked) [Example B195]	3.89	
CCN(C)C(=O)c1cc(-c2ncnc(Nc3cccc(OC)c3)n2)ccn1 [Example B278]	2.26	
CC(=O)N(c1ccccc1)c1ncnc(-c2ccnc(C(=S)N(C)CC3CC3)c2)n1 [Example B344, N-(4-{2-[(cyclopropylmethyl)(methyl)carbamothioyl]pyridin-4-yl}-1,3,5-triazin-2-yl)-N-phenylacetamide]		3.02
CC#CCON=C(C)c1cc(-c2ncnc(Nc3cccc(Cl)c3)n2)ccn1 (mixture of isomers) [Example B36]	4.41	
CSc1cccc(Nc2ncnc(-c3ccnc(C(=O)NCCCN4CCCCCC4=O)c3)n2)c1 [B215]	3.02	
CCCN(CC1CC1)C(=O)c1cc(-c2ncnc(Nc3cccc(Cl)c3)n2)ccn1 [Example B159]	3.94	
CN(CC1CC1)C(=O)c1cc(-c2ccnc(Nc3ccnc(Cl)c3)n2)ccn1 [Example A31]	2.28	
CC1CCN(C(=O)c2cc(-c3ncnc(Nc4cccc(Cl)c4)n3)ccn2)CC1 [Example B131]	3.51	
O=C(NCCCN1CCCCCC1=O)c1cc(-c2ncnc(Nc3ccc(F)c(Cl)c3)n2)ccn1 [Example B194]	3.19	
COCC(C1CC1)N(C)C(=O)c1cc(-c2ncnc(Nc3ccc(F)c(Cl)c3)n2)ccn1 (centres unmarked) [B210]	3.33	
CCN(C)C(=S)c1cc(-c2ncnc(N(C(=O)COC)c3cccc(F)c3)n2)ccn1 [Example B338]	2.62	
CCCN(CCC)C(=O)c1cc(Nc2nccc(-c3ccnc(C(=O)N(CCC)CCC)c3)n2)ccn1 [Example A12]	2.54	
CN(CC1CCCO1)C(=O)c1cc(-c2ncnc(Nc3cccc(Cl)c3)n2)ccn1 (centres unmarked) [Example B160]	2.76	
O=C(NCCCN1CCCC1=O)c1cc(-c2ncnc(Nc3cccc(Cl)c3)n2)ccn1 [B100]	2.63	
CCN(CC)C(=O)c1cc(-c2ncnc(Nc3ccc(C)c(Cl)c3)n2)ccn1 [Example B349]	3.44	
CCOC(=O)c1cc(-c2ccnc(Nc3ccc(OC)nc3)n2)ccn1 [Example A1, ethyl 4-{2-[(6-methoxypyridin-3-yl)amino]-pyrimidin-4-yl}pyridine-2-carboxylate]		1.1

Reference: patent US20110218188A1, “SUBSTITUTED (PYRIDYL)-AZINYLAMINE DERIVATIVES AS FUNGICIDES” (priority 2008, published 2011)
